Assays:
IL-13 = IL-13 (Homo sapiens, UniProt P35225); experiment: Immunoassay binding test, IL-13; conditions: for IC50: IL-13 400 ng/ml, receptor 100 ng/ml, read-out: BINDING IL13 IC50
Summary of the method: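 Receptor-coated plates; compounds (100 to 0.78 μM final) preincubated 2 h at 37° C with fixed cytokine, then bound to receptor overnight at 4° C. Bound cytokine detected with biotinylated anti-cytokine antibody and avidin-HRP, OD 450 nm.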

IL-4 = target: T1, IL-4 (Homo sapiens, UniProt P05112); experiment: Immunoassay binding test, IL-4; conditions: for IC50: IL-4 400 ng/ml, receptor 100 ng/ml, read-out: BINDING IL4 IC50
T1 sequence (P05112 25-153): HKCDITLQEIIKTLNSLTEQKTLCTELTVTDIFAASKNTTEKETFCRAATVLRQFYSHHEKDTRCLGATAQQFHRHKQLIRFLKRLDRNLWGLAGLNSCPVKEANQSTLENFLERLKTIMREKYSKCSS
Summary of the method: (§1)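 Detection used OD at 450 nm after biotinylated anti-cytokine antibody and avidin-HRP were applied to receptor-coated wells. Those wells had received, overnight at 4 °C, cytokine preincubated 2 h at 37 °C with compound at final 100 to 0.78 μM. IL-6 mixtures further contained IL-6Ra at 200 ng/ml final.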

IL-6 = IL-6 (Homo sapiens, UniProt P05231); experiment: Immunoassay binding test, IL-6 (gp130 receptor, IL-6Ra present); conditions: IL-6Ra 200 ng/ml
Summary of the method: as §1

TNFα = TNFα (Homo sapiens, UniProt P01375); experiment: Immunoassay binding test, TNFa; conditions: compounds 100 to 0.78 μM; TNFα 10 ng/ml, receptor 100 ng/ml; read-out: BINDING TNF IC50
Summary of the method: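 ELISA-type binding test: receptor-coated plates blocked with 2% BSA, then cytokine (six-point dilution series) preincubated 2 h at 37 °C and bound overnight at 4 °C. Detection used biotinylated anti-cytokine antibody and avidin-HRP, read as OD at 450 nm. For IL-6, IL-6Ra was present at 200 ng/ml final.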

TNFa/TNFRI interaction = TNFa/TNFRI interaction (Homo sapiens, UniProt P01375); experiment: TNFa/TNFRI interaction displacement test; format: binding; conditions: compounds at 50 μM; human TNFRI 100 ng/ml
Summary of the method: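 Plates coated overnight at 4° C with human TNFRI (100 ng/ml) and blocked with 2% BSA, then test mixtures were incubated overnight at 4° C. Bound cytokine detected with biotinylated anti-cytokine antibody (2 h, 37° C) and avidin-HRP, read as OD at 450 nm.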

IL-13, sequence (P35225 25-146, species assumed): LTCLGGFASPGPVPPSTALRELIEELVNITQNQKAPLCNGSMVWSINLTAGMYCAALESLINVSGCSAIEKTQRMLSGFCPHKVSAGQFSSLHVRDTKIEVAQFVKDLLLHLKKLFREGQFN
IL-6, sequence (P05231 30-212, species assumed): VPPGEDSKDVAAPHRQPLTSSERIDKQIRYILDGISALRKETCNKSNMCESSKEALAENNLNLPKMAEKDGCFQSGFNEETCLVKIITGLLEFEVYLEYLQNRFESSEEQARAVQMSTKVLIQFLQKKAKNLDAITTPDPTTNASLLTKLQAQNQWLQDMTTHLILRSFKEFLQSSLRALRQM
TNFa/TNFRI interaction, sequence (P01375 77-233 limits assumed): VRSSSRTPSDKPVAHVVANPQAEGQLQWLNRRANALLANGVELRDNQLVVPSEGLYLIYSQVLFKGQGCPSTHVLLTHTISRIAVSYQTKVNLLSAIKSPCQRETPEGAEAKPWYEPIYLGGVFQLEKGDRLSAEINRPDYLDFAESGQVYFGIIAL
TNFα, sequence (P01375 77-233 limits assumed, species assumed): as the sequence (P01375 77-233 limits assumed) above

BINDING IL13 % Neutra at 100 μM (IL-13) [%]	IC50 (IL-13) [µM]	BINDING IL4 % Neutra at 100 μM (IL-4) [%]	IC50 (IL-4) [µM]	BINDING IL6 % Neutra at 100 μM (IL-6) [%]	IC50 (TNFα) [µM]	Displacement (%) (TNFa/TNFRI interaction)	SMILES
85.8	> 50	92.0	8.5	0	11.2	147	O=S(=O)(c1ccccc1)n1cc(CN(CCCCNC2CCCCCCC2)Cc2cccnc2F)c2ccccc21 [Compound 75, N′-cyclooctyl-N^4-((2-fluoropyridin-3-yl)methyl)-N^4-((1-(phenylsulfonyl)-1H-indol-3-yl)methyl)butane-1,4-diamine]
0	–	13.7	> 100	0	> 50	35	NS(=O)(=O)NCCCCN(Cc1cccnc1F)Cc1cn(S(=O)(=O)c2ccccc2)c2ccccc12 [Compound 77]
0	–	29.1	> 100	0	> 50	0	O=S(=O)(NCCCCN(Cc1cccnc1F)Cc1cn(S(=O)(=O)c2ccccc2)c2ccccc12)N1CCCCC1 [Compound 80]
0	–	39.3	> 50	1	> 50	0	O=S(=O)(NCCCCN(Cc1cccnc1F)Cc1cn(S(=O)(=O)c2ccccc2)c2ccccc12)N1CCCCCC1 [Compound 81]
0	–	36.6	> 100	3	44.3	45	CC(=O)NCCCCN(Cc1cccnc1F)Cc1cn(S(=O)(=O)c2ccccc2)c2ccccc12 [Compound 85]
87.9	> 50	92.6	4.9	6	5	188	O=S(=O)(c1ccccc1)n1cc(CN(CCCCN(C2CCC2)C2CCC2)Cc2cccnc2F)c2ccccc21 [Compound 86]

The remaining lines, values behind:

SMILES	BINDING IL13 % Neutra at 100 μM (IL-13) [%]	IC50 (IL-13) [µM]	BINDING IL4 % Neutra at 100 μM (IL-4) [%]	IC50 (IL-4) [µM]	BINDING IL6 % Neutra at 100 μM (IL-6) [%]	IC50 (TNFα) [µM]	Displacement (%) (TNFa/TNFRI interaction)
CN(C)S(=O)(=O)NCCCCN(Cc1cccnc1F)Cc1cn(S(=O)(=O)c2ccccc2)c2ccccc12 [Compound 78]	0	–	33.5	> 50	0	> 50	11
CCN(CC)S(=O)(=O)NCCCCN(Cc1cccnc1F)Cc1cn(S(=O)(=O)c2ccccc2)c2ccccc12 [Compound 79]	0	–	31.0	> 100	1	> 50	3
O=S(=O)(NCCCCN(Cc1cccnc1F)Cc1cn(S(=O)(=O)c2ccccc2)c2ccccc12)N1CCOCC1 [Compound 82]	0	–	27.9	> 100	5	> 50	18
CN1CCN(C(=O)NCCCCN(Cc2cccnc2F)Cc2cn(S(=O)(=O)c3ccccc3)c3ccccc23)CC1 [Compound 83]	1	–	84.6	> 50	0	21	93
O=C(NCCCCN(Cc1cccnc1F)Cc1cn(S(=O)(=O)c2ccccc2)c2ccccc12)N1CCOCC1 [Compound 84]	0	–	0	–	3	21.2	111
NCCCCN(Cc1cn(S(=O)(=O)c2ccccc2)c2ccccc12)Cc1cn(S(=O)(=O)c2ccccc2)c2ccccc12 [Compound 87]	94.2	8.2	95.5	4.4	6	18.8	28
O=S(=O)(c1ccccc1)n1cc(CN(CCCCNCc2cccnc2F)Cc2cn(S(=O)(=O)c3ccccc3)c3ccccc23)c2ccccc21 [Compound 88]	8	–	69.0	5.3	9	> 50	5
O=S(=O)(c1ccccc1)n1cc(CN(CCCCNC2CCCCC2)Cc2cn(S(=O)(=O)c3ccccc3)c3ccccc23)c2ccccc21 [Compound 89]	94.7	2.6	95.6	2	0	15	63
CN(C)CCCCCN(Cc1cccc(F)n1)Cc1cn(S(=O)(=O)c2ccccc2)c2ccccc12 [Compound 90]	69.7	> 50	94.0	5.2	0	15.5	137
CN(CCCCN(Cc1ccn(S(=O)(=O)c2ccccc2)c1)Cc1cccnc1F)C1CCCCC1 [Compound 91, N1-cyclohexyl-N4-((2-fluoropyridin-3-yl)methyl)-N1-methyl-N4-((1-(phenylsulfonyl)-1H-pyrrol-3-yl)methyl)butane-1,4-diamine]	35.8	> 50	87.5	16.4	0	27.5	87
CN1CCN(S(=O)(=O)n2cc(CN(CCCCN(C)C3CCCCC3)Cc3cccnc3F)c3ccccc32)CC1 [Compound 92]	72.0	> 50	92.3	7.7	2	8.4	117
CCN(CCOCCN(Cc1cccnc1F)Cc1cn(S(=O)(=O)c2ccccc2)c2ccccc12)C1CCCCC1 [Compound 93, N-ethyl-N-(2-(2-(((2-fluoropyridin-3-yl)methyl)((1-(phenylsulfonyl)-1H-indol-3-yl)methyl)amino)ethoxy)ethyl)cyclohexanamine]	91.3	7.8	89.8	2.8	0	11.2	160
CN(CCCCN(Cc1cccnc1F)Cc1cn(S(=O)(=O)c2ccccc2)c2ncccc12)C1CCCCC1 [Compound 94, N1-cyclohexyl-N4-((2-fluoropyridin-3-yl)methyl)-N1-methyl-N4-((1-(phenylsulfonyl)-1H-pyrrolo[2,3-b]pyridin-3-yl)methyl)butane-1,4-diamine]	75.2	> 50	95.8	34.5	0	19	101
CN(CCCCN(Cc1cccnc1F)Cc1cn(C)c2ccccc12)C1CCCCC1 [Compound 95]	0	–	75.3	> 50	0	> 50	16

— US20230416239A1, “COMPOUNDS AND METHODS FOR TREATING A CYTOKINE-MEDIATED DISEASE” (CONSERVATOIRE NATIONAL DES ARTS ET MÉTIERS, priority 2020, published 2023)
